Laboratory results as given in PubChem BioAssay AID504816 (The Scripps Research Institute Molecular Screening Center, 2011).
The source made the active and inactive calls.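 The calls were made as follows: active = compounds that boost mutant procaspase-3 substrate cleavage with EC50 of 10000 nM or lower; inactive = EC50 above 10000 nM.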

Target: Caspase-3 (Homo sapiens) (UniProt P42574)
Experiment: activators of human procaspase-3 D3A mutant, late-stage follow-up, biochemical, absorbance, PC-3 D3A mutant, powder samples (AID 504816)
Settings: recombinant PC-3 D3A, Ac-DEVD-pNA absorbance 405 nm

Sequence of Caspase-3 (Homo sapiens) (P42574 whole entry D9A/D28A/D175A): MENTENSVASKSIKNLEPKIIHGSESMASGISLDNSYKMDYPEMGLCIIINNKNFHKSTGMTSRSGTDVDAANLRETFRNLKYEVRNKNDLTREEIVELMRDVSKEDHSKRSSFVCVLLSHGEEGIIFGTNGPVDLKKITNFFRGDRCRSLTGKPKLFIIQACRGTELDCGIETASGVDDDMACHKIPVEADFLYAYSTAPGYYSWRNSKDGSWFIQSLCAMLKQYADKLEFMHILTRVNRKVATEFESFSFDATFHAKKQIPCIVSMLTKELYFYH

Structure (SMILES) | EC50
C=CCn1c(=NC(=O)c2cc(-c3cccs3)nc3ccccc23)sc2cc(S(N)(=O)=O)ccc21 | 3.19 µM
CC(NC(=O)c1cc2cc([N+](=O)[O-])ccc2oc1=O)C1CCCO1 (centres undefined) | inactive
CC(=O)Oc1cccc2c1C(=O)c1c(OC(C)=O)cc(C(=O)O)cc1C2=O | inactive
COc1ccccc1Nc1nc2c(C)cccc2cc1C#N | > 85.3 µM (inactive)
